# Several values for one entry are separate records, joined by “and”; a condition that tells them apart may be missing. Identical values can stand only once.
# How the values were obtained:
# [1] = molecular target: VHL + Brd3BD1 (Homo sapiens, UniProt P40337+Q15059); conditions: for ΔpKd: Log10(α) = pKd ternary - pKd binary; for Cooperativity α: α = Kd binary/Kd ternary
# [2] = molecular target: VHL + Brd4BD1 (Homo sapiens, UniProt O60885+P40337); conditions: for ΔpKd: Log10(α) = pKd ternary - pKd binary; for Cooperativity α: α = Kd binary/Kd ternary
# [3] = molecular target: T1, VHL + Brd2BD2 (Homo sapiens, UniProt P25440+P40337); assay: FP competition, ternary binding to VHL with Brd2BD2; conditions: for ΔpKd: Log10(α) = pKd ternary - pKd binary
# T1 construct: Brd2-BD2 (344–455); His6 (N, cleaved yes); made in house; host or cells: E. coli
# [4] = tested on: P-gp (human MDR1); assay: in vitro; conditions: dog; for Papp B→A at 5 µM / Papp A→B at 5 µM: MDCK-MDR1; for efflux ratio at 5 µM: MDCK-MDR1, Efflux ratio B-A/A-B, MDCK-MDR1, 5 µM, N = 2
# [5] = molecular target: T2, VHL + Brd3BD2 (Homo sapiens, UniProt P40337+Q15059); assay: FP competition, ternary binding to VHL with Brd3BD2; conditions: for ΔpKd: Log10(α) = pKd ternary - pKd binary; for Cooperativity α: α = Kd binary/Kd ternary
# T2 construct: Brd3-BD2 (306–416); His6 (N, cleaved yes); made in house; host or cells: E. coli
# [6] = molecular target: T3, VHL + Brd4BD2 (Homo sapiens, UniProt O60885+P40337); type: binding; conditions: for ΔpKd: Log10(α) = pKd ternary - pKd binary
# T3 construct: Brd4-BD2 (333–460); His6 (N, cleaved yes); made in house; host or cells: E. coli
# [7] = molecular target: T4, Brd4 (Homo sapiens, UniProt O60885); assay: Western blot degradation of Brd4 in HEK293 cells; type: cell-based; conditions: HEK293, 4 h, 10 μM, N = 1
# T4 construct: endogenous in cells; host or cells: HEK293
# [8] = molecular target: T5, Brd2 (Homo sapiens, UniProt P25440); assay: Western blot degradation of Brd2 in HEK293 cells; type: cell-based
# T5 construct: endogenous in cells; host or cells: HEK293
# [9] = molecular target: T6, VHL + Brd2BD1 (Homo sapiens, UniProt P25440+P40337); assay: FP competition, ternary binding to VHL with Brd2BD1
# T6 construct: His6 (N, cleaved yes); made in house; host or cells: E. coli
# [10] = LPEester – LPEamide by amide–ester matched pairs
# [11] = human
# [12] = Log D(dec/w) shake flask partition coefficient; type: physicochemical; conditions: 1,9-decadiene/PBS; 1,9-decadiene and PBS pH 7.4 shake flask partition coefficient
# [13] = in vitro; conditions: PAMPA
SMILES,ΔpKd [1],Cooperativity α [1],ΔpKd [2],Cooperativity α [2],ΔpKd [3],Papp B→A at 5 µM [4] [×10⁻⁶ cm/s],ΔpKd [5],Cooperativity α [5],ΔpKd [6],ΔLPE [10],Plasma stability [11] [%],Papp A→B at 5 µM [4] [×10⁻⁶ cm/s],efflux ratio at 5 µM [4],logD hydrocarbon water [12],further results
"Cc1ncsc1-c1ccc(CNC(=O)[C@@H]2C[C@@H](O)CN2C(=O)[C@@H](NC(=O)COCCOCCOCCNC(=O)C[C@@H]2N=C(c3ccc(Cl)cc3)c3c(sc(C)c3C)-n3c(C)nnc32)C(C)(C)C)cc1 [Compound 21, MZ1]",0.45,2.8,0.62,4.2,1.46,1.5,0.73,5.3,1.73,,,,,,PAMPA Pe: 0.01 ×10^–6 cm/s
"Cc1ncsc1-c1ccc([C@H](C)NC(=O)[C@@H]2C[C@@H](O)CN2C(=O)[C@@H](NC(=O)COCCCOCCNC(=O)C[C@@H]2N=C(c3ccc(Cl)cc3)c3c(sc(C)c3C)-n3c(C)nnc32)C(C)(C)C)cc1 [Compound 22, ARV-771]",0.30,2.0,0.42,2.6,0.66,,0.64,4.3,1.12,,,,,,"Hook effect, Brd4 protein levels [7]: exhibited a hook effect; pDC50 Brd2 ([8]; HEK293, 4 h, 1 μM to 100 pM, mean ± S.E., three experiments): 6.9 ± 0.2 and 7.4 ± 0.1; DC50 ([8]; read-out: DC50 Brd2, HEK293 cells): 42 nM; Kd ([3]; read-out: pKd ternary (converted)): 7.41 nM; Cooperativity α ([3]; α = Kd binary/Kd ternary): 4.6; Cooperativity α ([6]; α = Kd binary/Kd ternary): 13; ΔpKd ([9]; Log10(α) = pKd ternary - pKd binary): 0.38; Cooperativity α ([9]; α = Kd binary/Kd ternary): 2.4"
"Cc1ncsc1-c1ccc(CNC(=O)[C@@H]2C[C@@H](O)CN2C(=O)[C@@H](NC(=O)CCCCCOC(=O)CC(c2ccccc2)c2ccccc2)C(C)(C)C)cc1 [Compound 13, 6-(((S)-1-((2S,4R)-4-Hydroxy-2-((4-(4-methylthiazol-5-yl)benzyl)carbamoyl)pyrrolidin-1-yl)-3,3-dimethyl-1-oxobutan-2-yl)amino)-6-oxohexyl 3,3-diphenylpropanoate]",,,,,,13.9,,,,1.6,58 ± 6,0.2,84,1.9,
"COCC(=O)OCCCCCC(=O)N[C@H](C(=O)N1C[C@H](O)C[C@H]1C(=O)NCc1ccc(-c2scnc2C)cc1)C(C)(C)C [Compound 8, 6-(((S)-1-((2S,4R)-4-Hydroxy-2-((4-(4-methylthiazol-5-yl)benzyl)carbamoyl)pyrrolidin-1-yl)-3,3-dimethyl-1-oxobutan-2-yl)amino)-6-oxohexyl 2-methoxyacetate]",,,,,,11,,,,-0.2,1 ± 0.4,0.4,26,-1.7,
"CCCC(=O)OCCCCCC(=O)N[C@H](C(=O)N1C[C@H](O)C[C@H]1C(=O)NCc1ccc(-c2scnc2C)cc1)C(C)(C)C [Compound 9, 6-(((S)-1-((2S,4R)-4-Hydroxy-2-((4-(4-methylthiazol-5-yl)benzyl)carbamoyl)pyrrolidin-1-yl)-3,3-dimethyl-1-oxobutan-2-yl)amino)-6-oxohexyl Butyrate]",,,,,,47,,,,1.1,13 ± 1,0.9,55,-0.5,Papp [13]: 6.5 ×10⁻⁶ cm/s
